Test results taken from article PMC9570898, “Comparing Variants of the Cell-Penetrating Peptide sC18 to Design Peptide-Drug Conjugates” (Molecules, 2022).
No end group written: not given here.

Key:
HEK-293 spheroids = assay: Flow cytometry of HEK-293 spheroids; assay type: cell-based, human; conditions: 10 µM CF-labeled peptides, 30 min or 1 h
Experimental: For the preparation and seeding of spheroids, cells were washed and trypsinized as described above. Cells were transferred into a fresh 15 mL centrifuge tube and centrifuged for 5 min at 300× g and rt. The supernatant was removed carefully and the pellet was resuspended in an appropriate medium supplemented with FBS. Cells were counted and a cell mixture was prepared, which would be sufficient for 100 drops (3 mL). Within this mixture a total amount of 1.5 × 10^6 cells (HEK-293 and HeLa cells) and 20% (v/v) methylcellulose (1.2 mg/mL) were required. The missing volume was filled up with an appropriate medium containing FBS; 30 μL drops were pipetted into the inverted lid of a petri dish (15,000 cells per drop), the bottom was covered with PBS and spheroids were grown in hanging drops for two or three days at 37 °C and 5% CO2, respectively.
For flow cytometry studies with tumor spheroids, the spheroids were prepared and grown as described above (4.7). […] After the spheroids started to fall apart, 850 μL of medium with FBS (indicator free) was added and the spheroids were resuspended to generate a homogenous cell suspension; 200 μL of each sample were transferred into a fresh round-bottom 96-well plate and analyzed on a Guava® easyCyte flow cytometer (Merck, Darmstadt, Germany). […]

HEK293 cells = assay: Cytotoxicity (resazurin) assay in HEK293 cells; assay type: cell-based, human; conditions: 24 h
Experimental: For cell viability assay, cells were (15,000 HeLa, 17,000 MCF-7 and 12,000 HFF-1 cells per well) seeded onto a 96-well plate and grown to 80–90% confluency. Cells were incubated with several peptide concentrations in a serum-free growth medium for 24 h under standard growth conditions. For the positive control, cells were treated with 70% EtOH for 7 min. After washing with DPBS, resazurin solution (10% in serum-free media, v/v) was incubated with the cells for 1 h under standard growth conditions. The cell viability was determined relative to untreated cells by measurement of the resorufin product at 595 nm (λex = 550 nm) on a Tecan infinite M200 plate reader (Tecan Group AG, Männedorf, Switzerland).
Cells were cultured and incubated at pH 7.4 for 24 h with different concentrations of peptide solutions. Untreated cells served as negative control; cells treated with 70% ethanol as positive control. Values from the positive control were subtracted from all data, and the untreated cells were set to 100%; assays were performed with n = 3 in triplicate.

[1] = Peptide interaction with anionic giant unilamellar vesicles; conditions: 1 µM CF-labeled peptide, 30 min, room temperature, fluorescence microscopy, Oyster405 dye outflow
Experimental: A thin agarose layer is necessary to build GUVs. Therefore, 1% super low melting agarose was melted in deionized water by heating up in a microwave. Afterward, 200 µL were coated on a clean slide and dried at 50 °C for 30 min on a heating plate; 10 µL of respective lipid solution was added onto the agarose layer and subsequently distributed and dried for 1 h using an exicator under vacuum to get rid of the chloroform. For staining the lipid layer, 0.2 mol % Atto550 was added. Afterward, a sealing ring was added around the pink lipid film. Lipids were hydrated with dextran buffer (10 mM HEPES buffer (pH 7.4), 50 mM KCl, 50 mM NaCl and 1 mg/mL Dextran) containing 3 µL Oyster405 (Luminaris GmbH, Münster, Germany) encapsulating the blue dye. Slides were incubated for 2 h at RT. […] For fluorescence microscopy analysis, lipids were transferred into an eight-well Ibidi® plate; 40 µL of respective GUV solution was mixed with 1 µM peptide solutions and filled up to 100 µL with dextran buffer. […] Afterward, GUVs were analyzed using a BZ-X800E microscope (Keyence, Osaka, Japan) followed by image processing with ImageJ.
Figure 4 Peptide interaction with […] (GUVs) composed of DOPC/DOPE/DOPG (40:30:30); 1 µM solutions of sC18 variants were incubated with GUVs for 30 min and inspected using a fluorescence microscope (Keyence). […]

HeLa cells [2] = assay: Fluorescence microscopy of intracellular distribution in HeLa cells; assay type: cell-based, human; conditions: 10 µM CF-labeled peptide, 30 min, confocal fluorescence microscopy
Experimental: Cells were seeded into 8-well plates (HeLa cells 35,000 and HFF-1 25,000 cells per well, respectively) and grown to 80–90% confluency. Cells were treated with 10 μM CF- or dox-labeled peptides in a serum-free medium for 30 min at 37 °C. Ten minutes prior to the end of the incubation time, nuclei were stained with Hoechst33342. The peptide solution was removed, and cells were washed five times with PBS and covered with fresh medium including FBS. Microscopic analysis was performed using an inverse confocal TCS SP8 microscope (Leica Microsystems, Wetzlar, Germany), equipped with a 63× oil-immersion objective. Images were recorded with LAS X software (LAS_X_Core_3.7.6_25997, Leica Microsystems, Wetzlar, Germany). For the GUV analysis and the uptake of the peptide-drug conjugates the Keyence fluorescence tabletop microscope BZ-X800E (Keyence, Osaka, Japan), with a 60× oil immersion lens was used. Images were recorded with Keyence software (BZ-800X_Analyzer 1.1.1.8, Keyence, Osaka: Japan) and evaluated with Fiji.
Figure 6 Fluorescence microscope analysis of 5 µM conjugates after 30 min of incubation at 37 °C in HeLa and HFF-1 cells. Red: peptides coupled to red fluorophore Doxorubicin; blue: Hoechst 33342 nuclear stain; BF: brightfield to identify living cells; scale bar is 20 µm.

HeLa cells [3] = assay: Cellular uptake by flow cytometry in HeLa cells; assay type: cell-based, human; conditions: 1 and 10 µM CF-labeled peptide, 30 min, 37 °C, serum-free medium, triplicate n = 3
Experimental: Monolayer cellular uptake was quantified using flow cytometry. Cells were seeded onto a 24-well plate (HeLa: 90,000, HEK293: 100,000 and MCF-7 130,000 cells per well) and grown to 80–90% confluency. Then, cells were incubated with the labeled peptides/conjugates in a serum-free medium at 37 °C for various incubation times, and subsequently washed twice with PBS and detached with indicator-free trypsin resuspended in an indicator-free serum-containing medium. The cell suspension was transferred into a 96-well FACS plate and fluorescence was then measured by a Guava easyCyte flow cytometer (Merck, Darmstadt, Germany).The blue laser was used for all measurements, FSC (1137–1538), SSC (3020–4086), Grn-B (647–875) and Red-B (694–939). Cellular autofluorescence of untreated control cells was subtracted.

RLRKLLRKFLRK-NH2 [sC18*^R,L]
accumulation in spheroids (HEK-293 spheroids): most efficient variants | concentration at which toxic effect started (HEK293 cells): 50 µM | interaction with anionic GUVs [1]: strongest accumulation leading to membrane disruption events and complete dye outflow from the vesicles | intracellular accumulation / uptake pattern (HeLa cells [2]): highly enriched all over the cytosol including uptake in the nuclei | cellular uptake (HeLa cells [3]): highly significant and enhanced internalization
